The values below come from patent US9962360B2, “Compositions and methods for enhancing hair growth, promoting skin regeneration, and wound healing” (The Hospital for Sick Children, priority 2014, dated 2018).

In test [1] the test system is back skin wound of C57/B16 mice. The test can be described thus: Full Thickness Biopsy Punch Wound model, topical application. The settings on record: for Ki67-positive proliferating dermal cells at the leading edge of the newly formed dermis: 7 days post-injury; for dermal tissue regeneration (layer of new dermal tissue) / epithelial gap / wound width: day 9, morphometric analysis; for CD31-positive blood vessels in the wound bed: leading edge of the newly formed dermis; for mice fully healed on day 7: topical daily, day 7 post-wounding, none of the vehicle treated controls.
Method: The effects of Alp and TM were further validated in in vivo rodent models. The model used was a Full Thickness Biopsy Punch Wound performed on the back skin of middle-aged (9 months old) C57/B16 mice (FIGS. 2A-2I). In these experiments, the hair on the back skin was shaved to expose skin and a 6 mm diameter wound was performed with a biopsy punch. Alp, TM, or vehicle were reconstituted in a composition of water-ethanol-propylene glycol (PG) and applied daily around the wound for the duration of 9 days. Topical analysis was performed to assess the degree of wound closure as well as morphometric analysis. For the analysis of wound closure, digital photographs were taken at day 0, 3, 7, and 9 post wounding. A ruler was used to calibrate the images and the wound margins were manually outlined. The wound closure rate was calculated as a percentage of the wound size on the day of surgery as previously reported in Johnston et al., Stem Cell Reports. […] Morphometric analyses of wound parameters were performed on hematoxylin and eosin-stained paraffin tissue sections from the central portion of the wound bed. Sections were scanned and images were stitched together to show the full wound bed. Morphometric analysis of different parameters was performed as described previously in Johnston et al., supra.

The test system of test [2] is SKPs. The test can be described thus: Clonal density assay in methylcellulose (SKPs self renewal and proliferation). The test is classed as cell-based. The settings on record: for sphere number versus control / sphere size versus control: 100 nM, scored after 14 days, 2,500 cells/mL, 1.6% methylcellulose; for sphere numbers, comparison with latanoprost: treatment for 14 days (FIG. 1L). The source says:
Finally, SKP proliferation was directly measured.

The next test has as its system STAT3. Description: Western blot of phosphorylated, activated STAT3 in SKPs. The settings on record: 100 nM. (A western blot detects proteins with antibodies after separation by electrophoresis.)
Another test relates to human SKPs. Description: Dose response sphere forming assay in human SKPs cultures. The settings on record: for human SKPs sphere number: 100 nM; for validation of hits in dose response sphere forming assays: secondary screens, rodent and human SKPs cultures.
The subject of another test is back skin of mice. Description: Skin assays: dermal thickness and proliferation after topical application. The settings on record: for number of Ki67 positive proliferating cells in the dermis: one week of topical treatment; for dermal thickness: three weeks of topical treatment.
In the next test the test system is GSK3beta. The test can be described thus: Western blot of phosphorylated, activated GSK3beta in SKPs. The settings on record: 100 nM.
Another test concerns neonatal rat SKPs. The test can be described thus: Secondary sphere formation assay / dose-response with rat SKPs. The settings on record: for rat SKPs sphere number: 100 nM, neonatal rat SKPs; for sphere numbers, dose-response curve: rat SKPs.
The subject of test [3] is SKPs. Description: Sphere forming assay of SKPs isolated from topically treated wound bed or skin. The settings on record: in vivo topical application.
Method: To assess whether the effects of topical application of Alp and TM were specific and due to recruitment of SKPs in vivo, an experiment was performed in which the drugs were applied topically for one week on the back skin of aged wounded or not wounded mice. The wound bed or control skin was dissected and SKPs were isolated and allowed to form spheres. Secondary SKP spheres were then used in a sphere forming assay.
For another test, the system named is Akt1. The test can be described thus: Western blot of phosphorylated, activated Akt1 in SKPs. The settings on record: 100 nM.
The test system of another test is CREB. The test can be described thus: Western blot of phosphorylated, activated CREB in SKPs. The settings on record: 100 nM.
For the next test, the system named is ERK1/2. Description: Western blot of phosphorylated, activated ERK1/2 in SKPs. The settings on record: 100 nM, SKPs cultured in FGF2 and EGF.
The next test has as its system Rat SKPs. The test can be described thus: Ki67 immunostaining of rat SKP spheres. The settings on record: rat SKPs cultured 3-4 days, treated daily for a further 2 days.
The subject of test [4] is SKPs. Description: 7 day sphere assay with MEK inhibition. The settings on record: with 100 nM trametinib.

Method for back skin of mice: Drugs were applied daily on the depilated area for the duration of three weeks. […] In the skin assays, the back hair of mice was shaved to expose skin and drugs were topically applied for the duration of one or three weeks. Skin morphology was then assessed by analyzing dermal thickness and proliferation.
Method for neonatal rat SKPs: Alp and TM were further characterized by dose-response curves with rat SKPs. […] A clonal density assay was also performed to validate the effect of drugs on SKPs self renewal and proliferation. As previously described in Jinno et al., Stem Cells 28:2027-2040, 2010, SKPs were dissociated and plated at 2,500 cells/mL in medium containing 1.6% methylcellulose. Cells were then treated with 100 nM of Alp, TM, Alp and TM, or DMSO and sphere formation was scored after 14 days. […] For comparison, cells were also treated with latanoprost (Latan), a prostaglandin (PGF2) that is bioactive in rodent and human skin. […] Finally, SKP proliferation was directly measured. Rat SKPs were cultured for 3-4 days, treated with Alp or TM daily for a further 2 days, and immunostained with the proliferation marker Ki67.

On to `CCCCC[C@H](O)/C=C/[C@H]1[C@H](O)CC(=O)[C@@H]1CCCCCCC(=O)O` [Alp, alprostadil], for which, in test [1], the “Ki67-positive proliferating dermal cells at the leading edge of the newly formed dermis” value is recorded as “increased”, the “dermal tissue regeneration (layer of new dermal tissue)” value is “enhanced”, the epithelial gap result is recorded as “significantly smaller” and the wound width entry is “significantly smaller”. Also, in test [1], the “CD31-positive blood vessels in the wound bed” value was “increased” and the “mice fully healed on day 7” value is on record as “almost half”. Besides, in the test on SKPs [2], the “sphere number versus control” value was “robust increase”; the “sphere size versus control” value is reported as “robust increase”; the “sphere numbers, comparison with latanoprost” value (“sphere numbers, comparison” below) is “significant increase”. In addition, the “phosphorylated, activated STAT3 compared to control” value in the test on STAT3 is “neither Alp nor TM increased”. Moreover, in the test with human SKPs, the “human SKPs sphere number” value was “increase” and the “validation of hits in dose response sphere forming assays” value (“validation of hits” below) is on record as “confirmed”. In addition, in the test with back skin of mice, the “number of Ki67 positive proliferating cells in the dermis” value was “increased” and the dermal thickness entry is given as “increase”. Besides, the “phosphorylated, activated GSK3beta compared to control” value in the test with GSK3beta is listed as “neither Alp nor TM increased”. In addition, in the test with neonatal rat SKPs, the “rat SKPs sphere number” value is reported as “increase” and the “sphere numbers, dose-response curve” value is “increased in a dose-dependent fashion”. In addition, in the test on SKPs [3], the “long term self-renewal of SKPs” value is reported as “enhance”. Moreover, in the test with Akt1, the “phosphorylated, activated Akt1 compared to control” value is reported as “neither Alp nor TM increased”. Further, the “phosphorylated, activated CREB compared to control” value in the test with CREB is “neither Alp nor TM increased”. In the test on ERK1/2, the “increase of ERK1/2 phosphorylation over basal levels” value was “approximately two-fold”. Moreover, the “increase of Ki67-positive sphere cells” value with Rat SKPs is listed as “approximately 60%”. The “compensation of the trametinib-induced decrease in sphere number” value with SKPs [4] is “neither TM nor Alp compensated”.
Take `O=c1c(O)c(-c2ccc(O)cc2)oc2cc(O)cc(O)c12` [Kae, kaempferol]: in the test with human SKPs, the “human SKPs sphere number” value was “increase” and the “validation of hits” value is listed as “confirmed”. Besides, the “rat SKPs sphere number” value with neonatal rat SKPs is “increase”.
As for `CC(C)OC(=O)CCC/C=C\C[C@@H]1[C@@H](CC[C@@H](O)CCc2ccccc2)[C@H](O)C[C@@H]1O` [Latan, latanoprost], the “sphere numbers, comparison” value with SKPs [2] is “significant increase”.
As to `CC[N+](CC)(CC)CCOc1ccc(/C=C/c2ccccc2)cc1` [MG 624], in the test on human SKPs, the “human SKPs sphere number” value is given as “increase” and the “validation of hits” value was “confirmed”. The “rat SKPs sphere number” value in the test on neonatal rat SKPs is “increase”.
For the compound `CCCCOc1ccc(OCCCN2CCOCC2)cc1` [Pram, pramoxine], in the test on human SKPs, the “human SKPs sphere number” value was “increase” and the “validation of hits” value is reported as “confirmed”. In the test with neonatal rat SKPs, the “rat SKPs sphere number” value is reported as “increase”.
Regarding trimebutine maleate [TM], in [1], the “Ki67-positive proliferating dermal cells at the leading edge of the newly formed dermis” value is “increase”, the “dermal tissue regeneration (layer of new dermal tissue)” value was “enhanced”, the epithelial gap result is “significantly smaller” and the wound width result is “significantly smaller”. Also, in test [1], the “CD31-positive blood vessels in the wound bed” value was “increased” and the “mice fully healed on day 7” value is “almost half”. In the test on SKPs [2], the “sphere number versus control” value is “robust increase”; the “sphere size versus control” value is on record as “robust increase”; the “sphere numbers, comparison” value was “significant increase”. For the same compound, in the test with STAT3, the “phosphorylated, activated STAT3 compared to control” value was “neither Alp nor TM increased”. For the same compound, in the test with human SKPs, the “human SKPs sphere number” value is reported as “increase” and the “validation of hits” value is listed as “confirmed”. In addition, in the test on back skin of mice, the “number of Ki67 positive proliferating cells in the dermis” value is recorded as “increased” and the dermal thickness entry was “increase”. Further, the “phosphorylated, activated GSK3beta compared to control” value with GSK3beta is given as “neither Alp nor TM increased”. In the test on neonatal rat SKPs, the “rat SKPs sphere number” value is “increase” and the “sphere numbers, dose-response curve” value was “increased in a dose-dependent fashion”. The “long term self-renewal of SKPs” value in the test on SKPs [3] is given as “enhance”. In the test on Akt1, the “phosphorylated, activated Akt1 compared to control” value is “neither Alp nor TM increased”. Besides, in the test on CREB, the “phosphorylated, activated CREB compared to control” value is reported as “neither Alp nor TM increased”. Besides, in the test with ERK1/2, the “increase of ERK1/2 phosphorylation over basal levels” value is reported as “approximately two-fold”. Further, the “increase of Ki67-positive sphere cells” value in the test on Rat SKPs is “approximately 60%”. In addition, in the test on SKPs [4], the “compensation of the trametinib-induced decrease in sphere number” value was “neither TM nor Alp compensated”.
